Tests used:
[1] = test system: American cockroach (Periplaneta americana); experiment: American cockroach mortality on treated filter paper; format: in vivo; details: 24 h
Text: (§1) The presence of a synergistic effect between the two active ingredients is established with the aid of the Colby equation (see Colby, S. R., “Calculating Synergistic and Antagonistic Responses of Herbicide Combinations”, Weeds 1967, 15, pg 20-22): E=X+Y−(XY/100).
(§2) Using the method of Colby, the presence of asynergistic interaction between two active ingredients is established by first calculating the expected activity, ‘E’, of the mixture based on activities of the two components applied alone. If ‘E’ is lower than the observed activity, synergy is present. In the equation above, ‘X’ is the percentage control observed when bifenthrin applied alone at rate ‘x’. The ‘Y’ term is percentage control observed when fipronil applied alone at rate ‘y’. The equation calculates ‘E’, the expected activity of the mixture of ‘X’ at rate ‘x’ with ‘Y’ at rate ‘y’ if their effects are strictly additive and no interaction has occurred.
The compositions of the present invention were tested for American cockroach (Periplaneta americana) activity in the following manner:
Test solutions were made by dissolving technical grade bifenthrin and fipronil in acetone to provide appropriate rates of application of bifenthrin and fipronil alone, as well as combinations of bifenthrin and fipronil. The active ingredient concentrations tested were from 10 part per million (0.01 mg of active ingredient/mL or 0.01 g/L) to 1000 parts per million (1.0 mg of active ingredient/mL or 1.0 g/L), four replicates per rate. In a fume cabinet, one milliliter of a test solution was applied to a 9 cm Whatman® 2 qualitative filter paper using a calibrated pipette. The application started at the center of the filter paper with individual drops being applied in an outward circular motion so that the entire filter paper was uniformly treated. Acetone only (one mL) was applied in the same manner to provide an untreated control (UTC). The treated filter papers were allowed to dry for two hours. The dried, treated or untreated filter paper was placed into a plastic cup having a base diameter of 90 mm, in which the upper portion of the walls of the plastic cup were coated with a fluoropolymer resin (PFTE-30) insect barrier (Fluoron® available from BioQuip Products Inc.) to prevent the insects from climbing out of the container. Ten late instar, healthy and active American cockroaches (Periplaneta americana) were momentarily immobilized using carbon dioxide and then placed onto the filter paper. The top of the plastic containers were covered with gauze to contain the cockroaches. The plastic containers were maintained at a temperature of 25° C. to 30° C. at ambient relative humidity out of direct sunlight. American cockroach mortality was assessed after 24 hours by counting the number of alive and the number of knocked down/dead cockroaches.
(§3) In order to compare the pesticidal effectiveness of the individual and combination treatments the LC 50 and LC 90 values (lethal concentration in ppm that would effectively knock down/kill 50% or 90% of the test pests) were calculated. In calculating the LC values for the various mixtures of bifenthrin and fipronil, probit analysis was conducted on the bifenthrin in concentration of the mixture. […] The values calculated from the data of Table 2 are in Table 2A below.

[2] = test system: German cockroach (Blatella germanica); experiment: German cockroach mortality on treated filter paper; format: in vivo, Blattella germanica; details: 24 h
Text: as §1, §2
The compositions of the present invention were tested for German cockroach (Blatella germanica) activity in the following manner.
Test solutions were made by dissolving technical grade bifenthrin and fipronil in acetone to provide appropriate rates of application of bifenthrin and fipronil alone, as well as combinations of bifenthrin and fipronil. The active ingredient concentrations tested were from 50 parts per million (0.05 mg of active ingredient/mL or 0.05 g/L) to 500 parts per million (0.5 mg of active ingredient/mL or 0.5 g/L), four replicates per rate. In a fume cabinet, one milliliter of a test solution was applied to a 9 cm Whatman® 2 qualitative filter paper using a calibrated pipette. The application started at the center of the filter paper with individual drops being applied in an outward circular motion so that the entire filter paper was uniformly treated. Acetone only (one mL) was applied in the same manner to provide an untreated control (UTC). The treated filter papers were allowed to dry for two hours. The dried, treated or untreated filter paper was placed into a plastic Petri dish and ten late instar, healthy and active German cockroaches (Blattella germanica) were momentarily immobilized using carbon dioxide and then placed onto the filter paper. The lid of each Petri dish was put on to contain the cockroaches. The Petri dishes were maintained at a temperature of 25° C. to 30° C. at ambient relative humidity out of direct sunlight. German cockroach mortality was assessed after 24 hours by counting the number of alive and the number of knocked down/dead cockroaches.
as §3, with “fipronil” for “bifenthrin in”, “1” for “2”, “1A” for “2A”

[3] = test system: black house spider (Badumna insignis); experiment: Black house spider mortality on treated pine plywood; format: in vivo; details: suspension concentrate diluted in water, 24 h
Text: as §1, §2
The compositions of the present invention were tested for black house spider (Badumna insignis) activity in the following manner:
Formulations of the test compounds were made as follows: • 1).
The testing was conducted on pine plywood surfaces that had dimensions of 20 cm×20 cm. The above formulations were diluted in water to achieve the desired concentration rate in grams of active ingredient per liter prior to application to the pine plywood. Each treatment was applied using an airbrush sprayer and compressed air as the propellant. The equipment was calibrated prior to use and the treatments were applied to the pine plywood surfaces at a rate of 1 L/10 m^2 (4 mL of final test solution per 20 cm×20 cm pine plywood surface)'. For example, in order to obtain a application rate of […] of active ingredient per 10 m^2, 1.25 mL of the fipronil formulation 1) which contained 100 gram per liter suspension concentrate formulation of fipronil, was diluted in 1 liter of water to make a final test solution. Four mL of the final test solution was sprayed onto the pine plywood surface. The treated pine plywood was allowed to air dry at ambient temperature by storing horizontally away from direct sunlight. Three black house spiders, medium to large in size collected from the field 1 to 2 days prior to testing, were placed separately under untreated portion cups (7 cm diameter by 7 cm deep) on the treated pine plywood surfaces. The untreated portion cups provided an opportunity for the spiders to seek an untreated area. The spiders were assessed after 24 hours exposure by counting the number of alive and the number of knocked down/dead spiders. There were three replications of each treatment.

[4] = probit analysis of Table 2 data, mixtures as bifenthrin:fipronil
[5] = probit analysis of Table 1 data, mixtures as bifenthrin:fipronil

Cc1c(COC(=O)[C@@H]2[C@H](/C=C(\Cl)C(F)(F)F)C2(C)C)cccc1-c1ccccc1 (racemic) [Bifenthrin, 2-methylbiphenyl-3-ylmethyl (Z)-(1RS)-cis-3-(2-chloro-3,3,3-trifluoroprop-1-enyl)-2,2-dimethylcyclopropanecarboxylate]
% Observed Control ([1]; 100 ppm (0.1 mg/mL)): 2.5%
Mortality Rep 1 dead/alive ([1]; 100 ppm (0.1 mg/mL)): 1/9
Mortality Rep 2 dead/alive ([1]; 100 ppm (0.1 mg/mL)): 0/10
Mortality Rep 3 dead/alive ([1]; 100 ppm (0.1 mg/mL)): 0/10
Mortality Rep 4 dead/alive ([1]; 100 ppm (0.1 mg/mL)): 0/10
% Observed Control ([1]; 125 ppm (0.125 mg/mL)): 45%
Mortality Rep 1 dead/alive ([1]; 125 ppm (0.125 mg/mL)): 1/9
Mortality Rep 2 dead/alive ([1]; 125 ppm (0.125 mg/mL)): 10/0
Mortality Rep 3 dead/alive ([1]; 125 ppm (0.125 mg/mL)): 7/3
Mortality Rep 4 dead/alive ([1]; 125 ppm (0.125 mg/mL)): 0/10
% Observed Control ([1]; 200 ppm (0.2 mg/mL)): 10%
Mortality Rep 1 dead/alive ([1]; 200 ppm (0.2 mg/mL)): 0/10
Mortality Rep 2 dead/alive ([1]; 200 ppm (0.2 mg/mL)): 0/10
Mortality Rep 3 dead/alive ([1]; 200 ppm (0.2 mg/mL)): 0/10
Mortality Rep 4 dead/alive ([1]; 200 ppm (0.2 mg/mL)): 4/6
% Observed Control ([1]; 250 ppm (0.25 mg/mL)): 12.5%
Mortality Rep 1 dead/alive ([1]; 250 ppm (0.25 mg/mL)): 1/9
Mortality Rep 2 dead/alive ([1]; 250 ppm (0.25 mg/mL)): 1/9
Mortality Rep 3 dead/alive ([1]; 250 ppm (0.25 mg/mL)): 2/8
Mortality Rep 4 dead/alive ([1]; 250 ppm (0.25 mg/mL)): 1/9
% Observed Control ([1]; 400 ppm (0.4 mg/mL)): 22.5%
Mortality Rep 1 dead/alive ([1]; 400 ppm (0.4 mg/mL)): 1/9
Mortality Rep 2 dead/alive ([1]; 400 ppm (0.4 mg/mL)): 2/8
Mortality Rep 3 dead/alive ([1]; 400 ppm (0.4 mg/mL)): 4/6
Mortality Rep 4 dead/alive ([1]; 400 ppm (0.4 mg/mL)): 2/8
% Observed Control ([1]; 500 ppm (0.5 mg/mL)): 25%
Mortality Rep 1 dead/alive ([1]; 500 ppm (0.5 mg/mL)): 0/10
Mortality Rep 2 dead/alive ([1]; 500 ppm (0.5 mg/mL)): 5/5
Mortality Rep 3 dead/alive ([1]; 500 ppm (0.5 mg/mL)): 2/8
Mortality Rep 4 dead/alive ([1]; 500 ppm (0.5 mg/mL)): 3/7
% Observed Control ([1]; 1000 ppm (1.0 mg/mL)): 97.5%
Mortality Rep 1 dead/alive ([1]; 1000 ppm (1.0 mg/mL)): 10/0
Mortality Rep 2 dead/alive ([1]; 1000 ppm (1.0 mg/mL)): 10/0
Mortality Rep 3 dead/alive ([1]; 1000 ppm (1.0 mg/mL)): 10/0
Mortality Rep 4 dead/alive ([1]; 1000 ppm (1.0 mg/mL)): 9/1
LC 50 [1, 4]: 906 ppm
LC 90 [1, 4]: 1618 ppm
% Observed Control ([2]; 100 ppm (0.1 mg/mL)): 2.5%
Mortality Rep 1 dead/alive ([2]; 100 ppm (0.1 mg/mL)): 0/10
Mortality Rep 2 dead/alive ([2]; 100 ppm (0.1 mg/mL)): 0/10
Mortality Rep 3 dead/alive ([2]; 100 ppm (0.1 mg/mL)): 0/10
Mortality Rep 4 dead/alive ([2]; 100 ppm (0.1 mg/mL)): 1/9
% Observed Control ([2]; 250 ppm (0.25 mg/mL)): 90%
Mortality Rep 1 dead/alive ([2]; 250 ppm (0.25 mg/mL)): 9/1
Mortality Rep 2 dead/alive ([2]; 250 ppm (0.25 mg/mL)): 9/1
Mortality Rep 3 dead/alive ([2]; 250 ppm (0.25 mg/mL)): 9/1
Mortality Rep 4 dead/alive ([2]; 250 ppm (0.25 mg/mL)): 9/1
% Observed Control ([2]; 500 ppm (0.5 mg/mL)): 97.5%
Mortality Rep 1 dead/alive ([2]; 500 ppm (0.5 mg/mL)): 10/0
Mortality Rep 2 dead/alive ([2]; 500 ppm (0.5 mg/mL)): 10/0
Mortality Rep 3 dead/alive ([2]; 500 ppm (0.5 mg/mL)): 10/0
Mortality Rep 4 dead/alive ([2]; 500 ppm (0.5 mg/mL)): 9/1
LC 50 [2, 5]: 193 ppm
LC 90 [2, 5]: 301 ppm
Observed % Control ([3]; 0.25 g ai/L at 1 L/10 m^2): 88.9%
Observed % Control ([3]; 0.5 g ai/L at 1 L/10 m^2): 88.9%
